Assay [1] has as its system B. subtilis. The experiment in a line: Sodium surfactant polyurethane coated microscope slides, surviving bacteria. The conditions noted are these: for CFU/mL B. subtilis: 30% sodium surfactant polyurethane coated microscope slides, two data sets.
Assay [2] deals with S. aureus. The description is as above. The conditions noted are these: for CFU/mL S. aureus: 30% sodium surfactant polyurethane coated microscope slides, two data sets.
Assay [3] has as its system Serratia marcescens. The experiment in a line: Growth on surfactant/TSA agar plates. The class given is cell-based. The following applies: the one Gram-negative not resistant. The method, then: This solution was then aliquoted into sterile petri dishes, approximately 25 mL per plate, and allowed to solidify. The organisms were grown in 5 mL of Trypticase Soy Broth. The sterile broth was inoculated with a single isolated colony from a stock culture and allowed to incubate in a shaking water bath at 37° C. for 8-10 hours. The estimated concentration was about 10^9 CFU/mL. Some plates were tested with a 1:100 dilution of these cultures to arrive at an approximate concentration of 10^7 CFU/mL. Then, 10 μL of each overnight culture was pipetted directly onto the surface of the surfactant/TSA plates, which were then allowed to incubate at 37° C. for 24 hours. Results were based on the presence or absence of bacterial growth on the surface of the agar.

The test system of assay [4] is E. coli. Format: cell-based, Escherichia coli. The following applies: 24 h contact time. On the procedure:
Escherichia coli ATCC 11229 (Culti-loops, Remel Europe, Dartford, Kent, UK) and Pseudomonas aeruginosa ATCC 15442 (Cuti-loops, Remel Europe, Dartford, Kent, UK) were selected as model Gram-negative organisms for the challenge testing of the antimicrobial coatings. Each bacterial strain was streaked for isolated colonies on Tryptic Soy Agar (TSA) plates (Difco, Becton Dickinson, Sparks, Md., U.S.A.) and incubated at 37° C. for 12 to 18 hours. Broth cultures were prepared by first picking 1-2 isolated colonies from TSA plates and inoculating 5 mL Tryptic Soy Broth (TSB; Difco, Becton Dickinson, Sparks, Md., U.S.A.) in a 16 mm test tube. This culture was grown in a shaking water bath at 150 RPM for 8 hours at 37° C. After the eight hours, 125 μL of this culture was added to 50 mL of TSB in a side-arm Klett flask and grown for approximately 8 hours in shaking water bath (150 RPM) at 37° C. The bacterial broths were grown to an A590 of 1.2-1.5, which correlated to approximately 10^9 CFU (colony forming units)/mL. 25 mL of this broth were transferred to a sterile 30 mL Oakridge tube and centrifuged at 12,000×g for 10 minutes at 4° C. (Sorval SS34 rotor) to pelletize the bacteria. The bacterial pellet was washed once and resuspended in 25 mL of phosphate buffer solution (PBS; BBL, FTA Hemaglutination Buffer, Becton Dickinson, Sparks, Md., U.S.A.). The suspension was diluted with PBS to achieve the target range of 10^5-10^6 CFU/mL and used to inoculate the slides containing antibacterial coatings.
Xylene/methanol (5:1 by weight) is used to dissolve the silver surfactants to facilitate homogeneously mixing with the alkyd resin composition.
A minus sign (−) denotes no growth, a plus sign (+) denotes confluent growth, and a capital P (P) denotes […].
Xylene/methanol (5:1 by weight) is used to dissolve the silver surfactants to facilitate homogeneously mixing with the acrylic resin composition.
The same laboratory experimental solvent based acrylic paint described in Example 34 is used to challenge E. coli by adding various levels of the invention silver anionic surfactants as described in Example 34.
A commercially available 2K epoxy resin paint is obtained from a local paint store (Sherwin Williams High Solids Epoxy Tile Clad HS; Part A B62WC11; Part B B60VZ75, The Sherwin Williams Company) and the same silver anionic surfactants described in Example 35 are used to prepare test coatings on microscope slides containing various levels of silver ion. These surfactants are dissolved in xylene/methanol (5:1 by weight) to facilitate their quantitative addition to the coating mixture.

Assay [5] deals with S. aureus. Format: cell-based, Staphylococcus aureus. The conditions noted are these: laboratory acrylic clearcoat, 24 h contact time. The text has this: A laboratory experimental solvent based acrylic paint is formulated and then used to challenge S. aureus by adding various levels of the invention silver anionic surfactants as described in Example 33. A binder is made by solution polymerization of butyl acrylate (25% w/w), methylmethacrylate (73.5% w/w), and methacrylic acid (1.5% w/w) in amylacetate using thermal initiation. This solution polymer is then used to make a 60% solids clearcoat binder in xylene/methanol (5:1 by weight). The silver anionic surfactants are dissolved in this same xylene/methanol mixture prior to addition to the clearcoat.

In assay [6] the test system is Staphylococcus epidermidis. The experiment in a line: Growth on surfactant/TSA agar plates. Format: cell-based. The conditions noted are these: Staphylococcus epidermidis strain EM3/ATCC12228.
The subject of assay [7] is Streptococcus agalactiae. The experiment in a line: Growth on surfactant/TSA agar plates. Format: cell-based. The conditions noted are these: Streptococcus agalactiae strain EM13.
Assay [8] deals with Streptococcus bovis. The experiment in a line: Growth on surfactant/TSA agar plates. Format: cell-based. The following applies: Streptococcus bovis strain EM12.
Assay [9] has as its system Streptococcus viridans. As to the kind of experiment: Growth on surfactant/TSA agar plates. Format: cell-based. The following applies: Streptococcus viridans strain EM8.
The test system of assay [10] is Bacillus subtilis. As to the kind of experiment: Growth on surfactant/TSA agar plates. Format: cell-based.
The subject of assay [11] is Micrococcus luteus. As to the kind of experiment: Growth on surfactant/TSA agar plates. Format: cell-based. The following applies: Micrococcus luteus strain EM17.
Assay [12] concerns Enterococcus fecalis. The experiment in a line: Growth on surfactant/TSA agar plates. Format: cell-based.
Assay [13] concerns Staphylococcus aureus. As to the kind of experiment: Growth on surfactant/TSA agar plates. Format: cell-based.
Assay [14] relates to Streptococcus pyogenes. The experiment in a line: Growth on surfactant/TSA agar plates. Format: cell-based. The conditions noted are these: Streptococcus pyogenes strain EM14.
Where [15] appears, read: after 12 and 24 hours of exposure, polyurethane coated slides.

Values joined by “and” are separate entries in the source; they are usually repeats but may differ in a detail not shown here. Equal entries are not always repeated. Where two headings read alike, the source gives them in different places.

Turning to `CCCCC(CC)COC(=O)CC(C(=O)OCC(CC)CCCC)S(=O)(=O)[O-].[Na+]` (stereo not shown) [NaAOT, Sodium bis(2-ethylhexyl)sulfosuccinate], the “Killing of B. subtilis” value in assay [1] (setting [15]) was “killed all”. Also, the “CFU/mL B. subtilis” value in assay [1] (exposure 12 hours) and in [1] (exposure 24 hours) was 0 CFU/mL each time. Further, the “Killing of S. aureus” value in assay [2] (setting [15]) is “killed all”. The “CFU/mL S. aureus” value in [2] (exposure 12 hours) and in assay [2] (exposure 24 hours) was 0 CFU/mL in each case. Also, the “Effect on Serratia marcescens” value in assay [3] is given as “except for Serratia marcescens”.
On to “silver linearalkanebenzene sulfonate [AgLABS]”, for which the “E. coli growth on coating” value in assay [4] (alkyd resin paint, 0.0012 weight % Ag in coating) was “+”; in assay [4] (alkyd resin paint, 0.003 weight % Ag in coating) it was “+”; in [4] (alkyd resin paint, 0.006 weight % Ag in coating) it was “+”; in assay [4] (alkyd resin paint, 0.012 weight % Ag in coating) it was “+”; in assay [4] (alkyd resin paint, 0.03 weight % Ag in coating) it was “−”; in [4] (alkyd resin paint, 0.06 weight % Ag in coating), “−”. Further, the “E. coli growth on coating” value in [4] (alkyd resin paint, 0.12 weight % Ag in coating) is listed as “−”; in assay [4] (commercial 2K epoxy paint, 0.0012 weight % Ag in coating), “+”; in [4] (commercial 2K epoxy paint, 0.003 weight % Ag in coating), “+”; in assay [4] (commercial 2K epoxy paint, 0.006 weight % Ag in coating), “+”; in assay [4] (commercial 2K epoxy paint, 0.012 weight % Ag in coating) it was “+”; in assay [4] (commercial 2K epoxy paint, 0.03 weight % Ag in coating), “−”. Further, the “E. coli growth on coating” value in assay [4] (commercial 2K epoxy paint, 0.06 weight % Ag in coating) is listed as “−”; in assay [4] (commercial 2K epoxy paint, 0.12 weight % Ag in coating), “−”; in [4] (commercial solvent borne acrylate paint, 0.0012 weight % Ag in coating), “+”; in assay [4] (commercial solvent borne acrylate paint, 0.003 weight % Ag in coating), “+”; in assay [4] (commercial solvent borne acrylate paint, 0.006 weight % Ag in coating), “+”; in assay [4] (commercial solvent borne acrylate paint, 0.012 weight % Ag in coating), “+”. Moreover, the “E. coli growth on coating” value is listed as “−” in [4] (commercial solvent borne acrylate paint, 0.06 weight % Ag in coating); “−” in assay [4] (commercial solvent borne acrylate paint, 0.12 weight % Ag in coating); “+” in [4] (laboratory solvent borne acrylate paint, 0.0012 weight % Ag in coating); “+” in assay [4] (laboratory solvent borne acrylate paint, 0.003 weight % Ag in coating); “+” in assay [4] (laboratory solvent borne acrylate paint, 0.006 weight % Ag in coating); “+” in assay [4] (laboratory solvent borne acrylate paint, 0.012 weight % Ag in coating). In addition, the “E. coli growth on coating” value is “−” in assay [4] (laboratory solvent borne acrylate paint, 0.06 weight % Ag in coating) and “−” in assay [4] (laboratory solvent borne acrylate paint, 0.12 weight % Ag in coating). In [4] (commercial 2K epoxy paint), the “Silver level giving complete inhibition of growth” value is reported as 0.03 % w/w. In assay [4] (commercial solvent borne acrylic paint), the “Silver level partially effective” value amounted to 0.03 % Ag w/w. Moreover, the “Silver level with partial inhibition” value in assay [4] (laboratory solvent based acrylic paint) stood at 0.03%. The “Silver level with partial growth” value in assay [5] is 0.012 % Ag w/w and 0.006 % Ag w/w.
Turning to `CCCCC(CC)COC(=O)CC(C(=O)OCC(CC)CCCC)S(=O)(=O)[O-].[Na+]` (stereo not shown) [Compound S1], the “No Growth(−)/Full Growth(+), replicate columns” value in assay [6], in assay [7], in assay [8], in assay [9], in [10] (Bacillus subtilis strain ATCC33) and in assay [10] (Bacillus subtilis strain EM27) was “−” throughout. Moreover, the “No Growth(−)/Full Growth(+), replicate columns” value in assay [11], in assay [12] (Enterococcus fecalis strain EM19 (first listing)), in assay [12] (Enterococcus fecalis strain EM19 (second listing)), in assay [13] (Staphylococcus aureus strain ATCC6538), in [13] (Staphylococcus aureus strain EM24/ATCC25923) and in assay [14] was “−” each time.

Source of the values: US20090060984A1, “ANIONIC SURFACTANTS LETHAL TO GRAM-POSITIVE BACTERIA” (priority 2007, published 2009).
